Data as given in ChEMBL document CHEMBL5233210, “Pyrazolone structural motif in medicinal chemistry: Retrospect and prospect” (Eur J Med Chem, 2020).
≈ marks a conversion by molar mass, not a printed value.

Assays:
Rattus norvegicus [1] = assay: Antiinflammatory activity against rat assessed as inhibition of carrageenan-induced paw edema relative to control; assay type: functional; set-up: concentration or dose not given beside the values
[2] = target: T1, Prostaglandin G/H synthase 1 (Ovis aries, UniProt P05979); assay: Inhibition of ovine COX-1
T1 sequence (P05979 whole entry): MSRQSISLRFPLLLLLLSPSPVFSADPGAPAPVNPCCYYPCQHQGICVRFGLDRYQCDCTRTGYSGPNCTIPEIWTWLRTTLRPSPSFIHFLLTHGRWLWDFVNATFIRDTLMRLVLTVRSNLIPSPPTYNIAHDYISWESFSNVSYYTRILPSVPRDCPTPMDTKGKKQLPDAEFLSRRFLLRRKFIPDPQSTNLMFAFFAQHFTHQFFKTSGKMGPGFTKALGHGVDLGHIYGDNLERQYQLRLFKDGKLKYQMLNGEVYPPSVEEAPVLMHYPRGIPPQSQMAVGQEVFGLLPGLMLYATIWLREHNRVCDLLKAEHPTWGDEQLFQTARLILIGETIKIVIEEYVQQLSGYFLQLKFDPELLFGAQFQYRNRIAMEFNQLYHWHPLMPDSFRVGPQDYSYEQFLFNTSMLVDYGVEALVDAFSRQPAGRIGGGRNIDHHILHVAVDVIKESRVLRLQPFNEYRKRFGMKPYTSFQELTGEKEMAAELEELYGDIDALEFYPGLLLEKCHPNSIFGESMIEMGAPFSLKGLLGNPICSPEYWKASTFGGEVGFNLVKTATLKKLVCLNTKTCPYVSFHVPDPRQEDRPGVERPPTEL

Ovis aries = organism: Ovis aries; assay: Selectivity index, ratio of IC50 for ovine COX-1 to IC50 for ovine COX-2
Rattus norvegicus [3] = assay: Antiinflammatory activity against rat assessed as inhibition of carrageenan-induced paw edema; assay type: functional
MCF7 = assay: Cytotoxicity against human MCF7 cells; assay type: functional, cell-based
Ehrlich [4] = assay: Cytotoxicity against mouse Ehrlich ascites cells assessed as dead cells at 25 ug/ml; assay type: functional; conditions: dose 25 µg/ml
Ehrlich [5] = assay: Cytotoxicity against mouse Ehrlich ascites cells assessed as dead cells at 100 ug/ml; assay type: functional; conditions: dose 100 µg/ml
Ehrlich [6] = assay: Cytotoxicity against mouse Ehrlich ascites cells assessed as dead cells at 500 ug/ml; assay type: functional; conditions: dose 500 µg/ml
Aspergillus niger = assay: Antifungal activity against Aspergillus niger; assay type: functional
Bacillus subtilis [7] = assay: Antibacterial activity against Bacillus subtilis; assay type: functional
Staphylococcus aureus = assay: Antibacterial activity against Staphylococcus aureus; assay type: functional
Streptococcus pyogenes = assay: Antibacterial activity against Streptococcus pyogenes; assay type: functional
Escherichia coli = assay: Antibacterial activity against Escherichia coli; assay type: functional
Candida albicans [8] = assay: Antifungal activity against Candida albicans; assay type: functional
Aspergillus fumigatus = assay: Antifungal activity against Aspergillus fumigatus; assay type: functional
Pseudomonas aeruginosa [9] = assay: Antibacterial activity against Pseudomonas aeruginosa; assay type: functional
[10] = Antioxidant activity assessed as ABTS radical scavenging activity; assay type: functional
[11] = Antioxidant activity assessed as DPPH radical scavenging activity; assay type: functional
Salmonella typhi = assay: Antibacterial activity against Salmonella typhi assessed as diameter of inhibition zone at 100 ppm; assay type: functional, Salmonella enterica subsp. enterica serovar Typhi; conditions: Salmonella enterica, read-out: DIZ
Bacillus subtilis [12] = assay: Antibacterial activity against Bacillus subtilis assessed as diameter of inhibition zone at 100 ppm; assay type: functional; conditions: read-out: DIZ
Candida albicans [13] = assay: Antifungal activity against Candida albicans assessed as diameter of inhibition zone at 100 ppm; assay type: functional; conditions: read-out: DIZ
Pseudomonas aeruginosa [14] = assay: Antibacterial activity against Pseudomonas aeruginosa assessed as diameter of inhibition zone at 100 ppm; assay type: functional; conditions: read-out: DIZ
Micrococcus luteus = assay: Antibacterial activity against Micrococcus luteus assessed as diameter of inhibition zone at 100 ppm; assay type: functional; conditions: read-out: DIZ
Salmonella paratyphi = assay: Antibacterial activity against Salmonella paratyphi assessed as diameter of inhibition zone at 100 ppm; assay type: functional, Salmonella enterica subsp. enterica serovar Paratyphi A; conditions: Salmonella enterica, read-out: DIZ
Trichoderma viride = assay: Antifungal activity against Trichoderma viride assessed as diameter of inhibition zone at 100 ppm; assay type: functional; conditions: read-out: DIZ
Streptococcus mutans = assay: Antibacterial activity against Streptococcus mutans assessed as diameter of inhibition zone at 100 ppm; assay type: functional; conditions: read-out: DIZ

Cc1[nH]n(-c2ccccc2)c(=O)c1CNc1ccc(S(N)(=O)=O)cc1
Activity (Rattus norvegicus [1]): 92%
IC50 [2]: > 100 µM
Ratio IC50 (Ovis aries): > 100
ED50 (Rattus norvegicus [3]): 109 mg/kg

Cc1c(-n2cc(C#N)c(=O)n(-c3ccc(S(=O)(=O)c4ccc(-n5c(=O)c(C#N)cn(-c6c(C)n(C)n(-c7ccccc7)c6=O)c5=S)cc4)cc3)c2=S)c(=O)n(-c2ccccc2)n1C
IC50 (MCF7): 37.2 µM

NC(=O)c1c(N/N=C2/C(=O)NN=C2N)sc2c1CCCC2
Activity (Ehrlich [4]): 65%
Activity (Ehrlich [5]): 98.4%
Activity (Ehrlich [6]): 81%

NC1=NNC(=O)C1(CCS(=O)(=O)c1ccccc1)CCS(=O)(=O)c1ccccc1
MIC (Aspergillus niger): 100 mg/L (≈ 230 µM)
MIC (Bacillus subtilis [7]): 100 mg/L (≈ 230 µM)
MIC (Staphylococcus aureus): 100 mg/L (≈ 230 µM)

CC(C)CCC[C@@H](C)[C@H]1CC[C@H]2[C@@H]3C/C(=C4\C(=O)NN=C4N)C4CCCC[C@]4(C)[C@H]3CC[C@]12C (stereo partly drawn)
MIC (Streptococcus pyogenes): 50 mg/L (≈ 107 µM)
MIC (Escherichia coli): 50 mg/L (≈ 107 µM)
MIC (Candida albicans [8]): 25 mg/L (≈ 53.4 µM)
MIC (Aspergillus fumigatus): 25 mg/L (≈ 53.4 µM)
MIC (Pseudomonas aeruginosa [9]): 50 mg/L (≈ 107 µM)

CCCC1=NN(c2c(F)c(F)cc(F)c2F)C(=O)/C1=C\c1cn(-c2ccccc2)nc1-c1cccs1
MIC (Streptococcus pyogenes): 62.5 mg/L (≈ 122 µM)
MIC (Aspergillus niger): > 1000 mg/L
MIC (Escherichia coli): 200 mg/L (≈ 392 µM)
MIC (Candida albicans [8]): > 1000 mg/L
MIC (Bacillus subtilis [7]): 125 mg/L (≈ 245 µM)
MIC (Pseudomonas aeruginosa [9]): 250 mg/L (≈ 490 µM)
MIC (Staphylococcus aureus): 125 mg/L (≈ 245 µM)

COc1ccc(-c2cc(C3C(=O)N(c4ccccc4)N=C3C)nc(N)n2)cc1 (stereo not drawn)
Activity (Rattus norvegicus [1]): 61.02%

CC1=NN(c2nc(-c3ccccc3)cs2)C(=O)C1
Activity [10]: 85.7%

CCCCNc1nc2ccccc2n1C1=NN=C(O)C1
Activity (Rattus norvegicus [1]): 61%
Ratio IC50 (Ovis aries): 4.84

NC1=NNC(=O)C1C(CS(=O)(=O)Cc1ccccc1)c1ccccc1 (stereo not drawn)
MIC (Aspergillus niger): 50 mg/L (≈ 140 µM)
MIC (Bacillus subtilis [7]): 25 mg/L (≈ 69.9 µM)
MIC (Staphylococcus aureus): 25 mg/L (≈ 69.9 µM)

COc1ccc(N/N=C2\C(=O)N(CC(=O)n3[nH]c(N)cc3=O)N=C2C(F)(F)F)cc1
MIC (Aspergillus niger): 5.3 mg/L (≈ 12.5 µM)
MIC (Escherichia coli): 15.3 mg/L (≈ 35.9 µM)
MIC (Candida albicans [8]): 9.22 mg/L (≈ 21.7 µM)
MIC (Pseudomonas aeruginosa [9]): 9.58 mg/L (≈ 22.5 µM)
MIC (Staphylococcus aureus): 8.02 mg/L (≈ 18.9 µM)

C/C(=N\c1c(C)n(C)n(-c2ccccc2)c1=O)c1cc(O)ccc1O
IC50 [11]: 15.2 µM

NS(=O)(=O)c1ccc(N/N=C2/C=NN(c3ccc(C(=O)O)cc3)C2=O)cc1
Activity (Rattus norvegicus [1]): 72.72%
ED50 (Rattus norvegicus [3]): 79 µmol/kg

Nc1cc(=O)n(C(=O)CN2N=C(C(F)(F)F)/C(=N/Nc3ccc(Br)cc3)C2=O)[nH]1
MIC (Aspergillus niger): 7.52 mg/L (≈ 15.9 µM)
MIC (Escherichia coli): 13.3 mg/L (≈ 28 µM)
MIC (Candida albicans [8]): 8.58 mg/L (≈ 18.1 µM)
MIC (Pseudomonas aeruginosa [9]): 10.2 mg/L (≈ 21.6 µM)
MIC (Staphylococcus aureus): 7.96 mg/L (≈ 16.8 µM)

Cc1[nH]n(-c2ccccc2)c(=O)c1C(c1ccc([N+](=O)[O-])cc1[N+](=O)[O-])c1c(O)ccc2ccccc12 (stereo not drawn)
zone of inhibition at 100 µg/mL (Salmonella typhi): 20 mm
zone of inhibition at 100 µg/mL (Bacillus subtilis [12]): 22.5 mm
zone of inhibition at 100 µg/mL (Candida albicans [13]): 28.5 mm
zone of inhibition at 100 µg/mL (Pseudomonas aeruginosa [14]): 13.5 mm
zone of inhibition at 100 µg/mL (Micrococcus luteus): 21.5 mm
zone of inhibition at 100 µg/mL (Salmonella paratyphi): 20 mm
zone of inhibition at 100 µg/mL (Trichoderma viride): 21.5 mm
zone of inhibition at 100 µg/mL (Streptococcus mutans): 14.5 mm

C/C(=N\c1c(C)n(C)n(-c2ccccc2)c1=O)c1ccc(O)cc1O
IC50 [11]: 19.1 µM

N#Cc1c(N/N=C2/C(=O)NN=C2N)sc2c1CCCC2
Activity (Ehrlich [4]): 94%
Activity (Ehrlich [5]): 100%
Activity (Ehrlich [6]): 98.6%

CC1=NN(C(=S)NN)C(=O)/C1=N/Nc1ccc(C)cc1
MIC (Aspergillus niger): 2.9 mg/L (≈ 9.99 µM)
MIC (Escherichia coli): 125 mg/L (≈ 431 µM)
MIC (Candida albicans [8]): 7.8 mg/L (≈ 26.9 µM)

COc1cc(-c2cc(C3C(=O)N(c4ccc([N+](=O)[O-])cc4[N+](=O)[O-])N=C3C)nc(N)n2)ccc1O (stereo not drawn)
Activity (Rattus norvegicus [1]): 62.51%

Cc1c(-n2cc3c(N)nnc-3n(-c3ccccc3)/c2=N\N)c(=O)n(-c2ccccc2)n1C
IC50 (MCF7): 45 µM

CC1=NN(c2ccccc2)C(=O)C1c1cc(-c2ccc(O)cc2)nc(N)n1 (stereo not drawn)
Activity (Rattus norvegicus [1]): 61.84%

Cc1c(N/C=C2\C(=N)N(c3ccccc3)N=C2N)c(=O)n(-c2ccccc2)n1C
IC50 (MCF7): 60.7 µM

CC1=NN(c2ccc([N+](=O)[O-])cc2[N+](=O)[O-])C(=O)C1c1cc(-c2ccc(N(C)C)cc2)nc(N)n1 (stereo not drawn)
Activity (Rattus norvegicus [1]): 62.05%

CC1=NNC(=O)/C1=N/Nc1sc2c(c1C(N)=O)CCCC2
Activity (Ehrlich [4]): 38.1%
Activity (Ehrlich [5]): 96.5%
Activity (Ehrlich [6]): 66.6%

O=C1/C(=C\c2coc3ccccc3c2=O)C(C(F)(F)F)=NN1c1c(F)c(F)cc(F)c1F
MIC (Streptococcus pyogenes): 200 mg/L (≈ 438 µM)
MIC (Aspergillus niger): > 1000 mg/L
MIC (Escherichia coli): 500 mg/L (≈ 1100 µM)
MIC (Candida albicans [8]): 250 mg/L (≈ 548 µM)
MIC (Bacillus subtilis [7]): 62.5 mg/L (≈ 137 µM)
MIC (Pseudomonas aeruginosa [9]): 500 mg/L (≈ 1100 µM)
MIC (Staphylococcus aureus): 62.5 mg/L (≈ 137 µM)

CCOc1ccc(N/N=C2\C(=O)N(CC(=O)n3[nH]c(N)cc3=O)N=C2C(F)(F)F)cc1
MIC (Aspergillus niger): 6.28 mg/L (≈ 14.3 µM)
MIC (Escherichia coli): 26.7 mg/L (≈ 60.8 µM)
MIC (Candida albicans [8]): 9.08 mg/L (≈ 20.7 µM)
MIC (Pseudomonas aeruginosa [9]): 11.9 mg/L (≈ 27.1 µM)
MIC (Staphylococcus aureus): 12 mg/L (≈ 27.4 µM)
